Source: patent publication US12344643B2, “Compositions and methods for inhibition of FOXP3” (The University of Chicago, priority 2016, dated 2025)
Ends that are not written are not given here.

Assays:
[1] = target: T1, recombinant LZCC protein (dimerized FOXP3) (Mus musculus, UniProt Q99JB6); assay: Chemical crosslinking (BS3 or DSS) of recombinant LZCC with SAH-FOXP3 peptides; type: biochemical; conditions: 2 hours room temperature, 1 mM BS3 or DSS
T1 construct: the LZCC portion of FOXP3 (FOXP3 S189-K276); made in house
T1 sequence (Q99JB6 189-276): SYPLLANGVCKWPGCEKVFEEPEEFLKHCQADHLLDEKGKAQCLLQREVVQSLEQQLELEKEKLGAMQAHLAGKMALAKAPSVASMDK
Experimental: FIG. 8A-B. Chemical Crosslinking. SAH-FOXP3 peptides incubated with recombinant LZCC protein for 2 hours at room temperature in 1×PBS. 1 mM of the chemical crosslinker BS3 or DSS was added to each tube for 30 mins at room temperature. Samples were denatured and then separated by electrophoresis on a NuPage SDS 10/a Bis-Tris gel following the manufacturer's protocol (Invitrogen). Protein was imaged after staining the gel with coomassie on the Odyssey Imager. […] In some cases, SAH peptide crosslinks with monomeric FOXP3 alone

DNA probe = assay: EMSA control, peptide alone with DNA probe (non-specific binding); conditions: 50 μM peptide
Experimental: FIG. 9A-C. Electrophoretic mobility shift assays (EMSA). (A) SAHs block FOXP3 binding to cognate DNA; a comparison of stapled and unstapled peptides. EMSA with FOXP3ΔN incubated with increasing concentrations of different SAH-FOXP3 are shown. Labeled probe containing consensus sequence (A′GT25) for FOXP3 was incubated at room temperature for 15 mins with recombinant FOXP3ΔN and increasing concentrations of SAH peptide [3 μM to 25 μM]. The last lane in each set is 25 μM of peptide alone with DNA probe. […] IRDye700 labeled probe containing consensus sequence for NFAT was incubated at room temperature for 15 mins with 100 pmole recombinant NFAT-DBD and peptide or DMSO using the Odyssey Infrared EMSA kit per manufacturer's protocol (Li-Cor). Reactions were then separated by electrophoresis on a 10% TBE gel and imaged using an Odyssey Imager (Li-Cor).
To exclude non-specific binding to the negatively charged DNA probe, a liability of using charged peptides in EMSAs, SAH-FOXP3DDs were incubated with each probe at up to twice the highest concentration used. […] Next, SAH-FOXP3DDs were incubated with recombinant NFAT (NFAT DBDW400-W680) and the Il-2 reporter oligonucleotide ARRE2 element as a further test of specificity. SAH-FOXP3DDs were unable to inhibit NFAT:DNA binding, further validating on-target specificity of the peptides.

FOXP3-DNA binding = assay: EMSA with FOXP3 reticulocyte lysate (IVTT) and IRDye700 DNA probe, unstapled peptides; type: biochemical; conditions: peptides 50-200 μM, A′A1A2 probe
Experimental: FIG. 5A-C. Unstapled FOXP3 peptides are able to alter FOXP3-DNA binding at high concentrations. Preparation of FOXP3 proteins through In Vitro Transcription and Translation (IVTT) reticulocyte lysate: T7 DNA vectors (1 μg/25 μL) were incubated at 30° C. for 1.5 hr in reticulocyte lysate with T7 polymerase, amino acids and RNAsin per the manufacturer's protocol (TnT Coupled Reticulocyte Lysate System, Promega). IRDye700 labeled probe containing consensus sequence (A′A1A2; a DNA sequence previously published to bind FOXP3) for FOXP3 was incubated at room temperature for 15 mins with 2 μL FOXP3 reticulocyte lysate, in the presence of peptides (50-200 μM) using the Odyssey Infrared EMSA kit per manufacturer's protocol (Li-Cor). Reactions were then separated by electrophoresis on a 10% TBE gel and imaged using an Odyssey Imager (Li-Cor).

FOXP3:NFAT1 = assay: IL-2 promoter ARRE2 luciferase reporter, FOXP3 repression of NFAT1:AP1 transcription; type: cell-based, human; conditions: HEK cells
Experimental: FIG. 2A-E. Design, biochemical characterization, and functional testing of SAH-FOXP3NFATs. (A) Design strategy for SAHs targeting the FOXP3:NFAT1 dimerization interface. (B) CD showing that i(i+4) and i(i+7) stapled SAH-FOXP3NFATs and their point mutant controls are helical in solution. […] (C&D) Dose dependent inhibition of FOXP3-mediated NFAT repression with 2.5 ng (D) and 10 ng (E) FOXP3 DNA. Point mutant controls have no effect thus confirming specificity of action.
Experiments were conducted during development of embodiments herein to design stabilized α-helices of the FOXP3:NFAT1 interface (SAH-FOXP3NFAT). Using a similar approach as above, stapled peptides based on a FOXP3 α-helix, which is responsible for NFAT1 binding (FIG. 2A), were designed. Non-natural amino acids were inserted in either the i,i+4 (SAHFOXP3NFAT(i,i+4)) or i,i+7(SAHFOXP3NFAT(i,i+7)) positions. Hydrocarbon stapling of the FOXP3NFAT peptides and point mutants similarly stabilizes their helicity (FIG. 2B). The peptides were tested for inhibition of FOXP3:NFAT1 binding. Co-expression of increasing amounts of FOXP3 DNA with constitutively active NFAT1 dose dependently represses NFAT1: AP1 transcriptional activity at an IL-2 promoter ARRE2 luciferase reporter element in transfected human embryonic kidney (HEK) cells (FIG. 2C). […] Confirming specificity of action, neither point mutant control SAH had any effect (FIG. 2E). […] Possibilities include differences in cellular penetrance, binding efficiency, or intracellular trafficking between the two SAHs.

[2] = tested on: regulatory T cells (Tregs); assay: In vitro Treg suppression assay (Tcon proliferation, flow cytometry); type: cell-based, mouse (C57BL/6 FOXP3IRES-GFP)
Tregs [3] = assay: Flow cytometry of protein expression in treated Tregs; type: cell-based, mouse (C57BL/6 FOXP3IRES-GFP); conditions: dose titration
Experimental: (§1) FIG. 12A-B. SAH-FOXP3DD peptides are able to alter cellular expression (protein and mRNA) of FOXP3 target genes. Conventional T cells (CD4+ CD25−) and regulatory T cells (CD25+ GFP+) were isolated from CD4+ cells enriched from spleen and draining lymph nodes of FOXP3-IRES-GFP. Tregs were treated at 1000 cells per μL with peptides in OptiMem for 2 hours before being quenched with completed advanced DMEM and then stimulated with CD3/CD28 beads. Gene expression was determined using qRT-PCR 4 hours after stimulation. Membrane (live cell) or internal (fixed cell) expression of proteins was determined using flow cytometry 16 hrs after stimulation.
(§2) Tregs and Tcons were stimulated from C57BL/6 FOXP3IRES-GFP with IL-2 and CD3/CD28 microbeads for seven days and treated them with a dose titration of SAH-FOXP3DD10, or unstapled control, and measured membrane expression of CD127 (IL7Ra). Tregs and Tcons normally downregulate CD127 mRNA expression following seven days of stimulation.

Tregs [4] = assay: Quantitative PCR of mRNA in treated Tregs; type: cell-based, mouse (C57BL/6 FOXP3IRES-GFP); conditions: naïve Tregs with IL-2 and CD3/CD28 microbeads
Experimental: as §1, §2

[5] = target: T2, recombinant FOXP3 leucine zipper coiled-coiled (LZCC) domain (Mus musculus, UniProt Q99JB6); assay: Fluorescence polarization assay, FITC-peptide binding to LZCC; conditions: 50 nM FITC-peptide, 1×PBS pH 8
T2 construct: the LZCC portion of FOXP3 (FOXP3 S189-K276); made in house
T2 sequence (Q99JB6 189-276): T1 sequence (Q99JB6 189-276)
Experimental: FIG. 7A-D. Fluorescence polarization assay to determine SAH-FOXP3 binding to recombinant FOXP3 leucine zipper coiled-coiled (LZCC) domain. (A) Serially diluted recombinant LZCC was incubated with 50 nM FITC-peptide in 1×PBS pH 8 for 5-10 mins and then fluorescent polarization was measured using a SpectraMax spectrometer. […] (B—C) Serially diluted recombinant LZCC (A) or FOXP3 ΔN (B) was incubated with 50 nM FITC-peptide in 1×PBS pH 8 for 5-10 mins followed by fluorescent polarization measurement using a SpectraMax spectrometer. (D) Shift of composite binding curves indicate increased affinity for the leucine zipper coiled-coiled (LZCC) domain and FOXP3ΔN.
A library of hydrocarbon stapled peptides were synthesized representing these templates (SAH-FOXP3DDs) that incorporated three different hydrocarbon staple positions along the solvent-exposed face so as to avoid disruption of critical contact points between ‘a’ and ‘d’ residues of the coiled-coil. Non-natural amino acids were inserted at positions i,i+7 so that the hydrocarbon staples face away from the dimerization interface (FIG. 1A). […] Both native and stapled FOXP3DD peptides were α-helical in solution at a wide range of temperatures (20-50° C.) (FIG. 1B). To achieve solubility of the unstapled constructs for CD evaluation, 20% acetonitrile:water solution was used. […]

F8KHCQADXLLDEKGRAQCLLQREMVQSLEQQLVLEKEKL [SAH7, Ac-/-Am; hFOXP3 (214-253); staple (1215, H222)Z]
amount of dimerized FOXP3 protein after crosslinking [1]: modest decrease

HLLDEKGRAQCLLQREMVQSLE8QLVLEKXKLSAMQAHLAG [SAH3, Ac-/-Am; hFOXP3 (222-262); staple (Q244, E251)C]
binding of peptide to DNA probe (DNA probe): minimal binding

KGRAQCLLQREMVQSLE8QLVLEKXKLSAMQAH [SAH-FOXP3DD4, Ac-/-Am; hFOXP3 (227-259); staple (Q244, E251)C]
binding of peptide to DNA probe (DNA probe): minimal binding

LLDEKGRAQCL8QREMVQXLEQQLVLEKEK [SAH9, Ac-/-Am; hFOXP3 (223-252); staple (L234, S241)B]
amount of dimerized FOXP3 protein after crosslinking [1]: modest decrease

LLDEKGRAQCLLQREMVQSLEQQLVLEKEK (LLDEKGRAQCLLQREMVQSLEQQLVLEKEK-NH2) [223-252, free N-term/-Am; hFOXP3 (223-252); unstapled; B4 has the same range]
dissociation of FOXP3 from DNA (EMSA) (FOXP3-DNA binding): dissociate FOXP3 from DNA

QRTXNEIXHWFTRNFAFF [SAH-FOXP3NFAT(i,i+4), β-Ala/Ac; i,i+4 stapled FOXP3/NFAT peptide]
inhibition of FOXP3-mediated repression of NFAT1:AP1 luciferase activity (FOXP3:NFAT1; 2.5 ng FOXP3 DNA (low dose)): inhibited this FOXP3-mediated repression
inhibition of FOXP3-mediated repression of NFAT1:AP1 luciferase activity (FOXP3:NFAT1; 2.5 ng FOXP3 DNA (low dose), listed as FOXP3NFAT(i,i+4)): fully inhibited
inhibition of FOXP3-mediated repression of NFAT1:AP1 luciferase activity (FOXP3:NFAT1; 10 ng FOXP3 DNA (excess)): inhibited this FOXP3-mediated repression
inhibition of FOXP3-mediated repression of NFAT1:AP1 luciferase activity (FOXP3:NFAT1; 10 ng FOXP3 DNA (excess), listed as FOXP3NFAT(i,i+4)): less able to inhibit

QRTXNEIYHWXTRNFAFF [SAH-FOXP3NFAT(i,i+7), β-Ala/Ac; i,i+7 stapled FOXP3/NFAT peptide]
inhibition of FOXP3-mediated repression of NFAT1:AP1 luciferase activity (FOXP3:NFAT1; 2.5 ng FOXP3 DNA (low dose)): inhibited this FOXP3-mediated repression
inhibition of FOXP3-mediated repression of NFAT1:AP1 luciferase activity (FOXP3:NFAT1; 2.5 ng FOXP3 DNA (low dose), listed as FOXP3NFAT(I,i+7)): dose-responsively inhibited
inhibition of FOXP3-mediated repression of NFAT1:AP1 luciferase activity (FOXP3:NFAT1; 10 ng FOXP3 DNA (excess)): inhibited this FOXP3-mediated repression
inhibition of FOXP3-mediated repression of NFAT1:AP1 luciferase activity (FOXP3:NFAT1; 10 ng FOXP3 DNA (excess), listed as FOXP3NFAT(I,i+7)): dose-responsively inhibited

RAQCLLQREMVQSLE8QLVLEKXKLSAMQAH [SAH-FOXP3DD10, Ac-/-Am; hFOXP3 (229-259); staple (Q244, E251)C]
binding of peptide to DNA probe (DNA probe): minimal binding
degree of Treg inhibition ([2]; in vitro expanded Tregs): lower, but still present
ability of treated Tregs to inhibit Tcon proliferation ([2]; naïve Tregs pretreated for 2 hours): unable to inhibit the proliferation
expression of CD44 (Tregs [3]; Tregs stimulated seven days): dose dependent decrease
expression of CD69 (Tregs [3]; Tregs stimulated seven days): dose dependent decrease
membrane expression of CD127 (IL7Ra) (Tregs [3]; Tregs stimulated with IL-2 and CD3/CD28 microbeads for seven days): dose dependent increase
FOXP3 mRNA expression (Tregs [4]): correlative increase
IL-2 mRNA expression (Tregs [4]): correlative increase

RAQCLLQREMVQSLEQQLVLEKEKLSAMQAH (Ac-RAQCLLQREMVQSLEQQLVLEKEKLSAMQAH-NH2) [229-259, Ac-/-Am; hFOXP3 (229-259); unstapled]
dissociation of FOXP3 from DNA (EMSA) (FOXP3-DNA binding): dissociate FOXP3 from DNA

SGSGSRAQCLLQREMVQSLEQQLVLEKEK (Ac-SGSGSRAQCLLQREMVQSLEQQLVLEKEK-NH2) [B2V3, Ac-/-Am; SGSGS hFOXP3 (229-252); unstapled native peptide]
binding to recombinant LZCC, in words [5]: much lower affinity

SGSRAQCLLQREMVQSLEQQLVLEKEK (Ac-SGSRAQCLLQREMVQSLEQQLVLEKEK-NH2) [B2V2, Ac-/-Am; SGS hFOXP3 (229-252); unstapled native peptide]
binding to recombinant LZCC, in words [5]: much lower affinity
